Legend:
[1] = tested on: ENZ1 (SEQ ID NO:1) and ENZ2 (SEQ ID NO:2); assay: Cascade dihydroxylation of L-lysine, conversion by HPLC (protocol A); type: biochemical, Catenulispora acidiphila; Flavobacterium johnsoniae; settings: ENZ1 0.13 mg/mL 3h, then ENZ2 added, 18 h, room temperature
Procedure: (§1) Enzymatic reaction medium (0.2 µmole, leq.), borate buffer 0,2M pH 7.7 (80 µL) and Fmoc-Cl solution7.5 mM in acetone (100 µL, 0.75 µmole, 3.75 eq) were hand shaked in a closed 1.50 mL eppendorf for one minute. The aqueous layer was extracted with petroleum ether (3*1 mL) to eliminate excess of Fmoc-Cl. 70 µL of the aqueous phase were withdrawn, diluted with 70 µL of acetonitrile and injected into the HPLC. For substrates with two amine functions, 100 µL of Fmoc-Cl solution 15 mM were used.
(§2) Conditions for HPLC analysis: Atlantis® T3 (3 µm 4.5*150 mm) at 35°C with the gradient 50-86% eluent B (MeCN + 0.1% TFA) and eluent A (H2O + 0.1% TFA) in 20 min at 1 mL/min.
Enzymatic reaction was carried out in 250 mL glass erlenmeyer flask for a total volume of 4*10 mL. Water (5.6 mL), Hepes buffer 1M pH 7.50 (0.5 mL, 50 mM), L-lysine […] (1 mL, 10 mM), α-ketoglutarate 150 mM (1 mL, 15 mM), sodium ascorbate 100 mM (0.25 mL, 2,5 mM), ammonium Iron(II) sulfate hexahydrate 10 mM (1 mL, 1 mM) were poured into the erlenmeyer. The reaction was started by ENZ1 addition (1.99 mg/mL, 0.65 mL, final concentration 0.13 mg/mL). […] The conversion (90%) was determined by HPLC after derivatization with Fmoc-Cl according to protocol A. The assembled reaction mixtures were acidified with 200 µL of TFA then centrifuged. […]

[2] = target: T1, ENZ1 (SEQ ID NO:1) (Catenulispora acidiphila, UniProt C7QJ42); assay: Enzymatic hydroxylation of L-lysine, 10 mL scale, conversion by HPLC (protocol A); type: biochemical; settings: ENZ1 0.024 mg/mL, L-lysine 10 mM, α-ketoglutarate 15 mM, sodium ascorbate 2.5 mM, Fe(II) 1 mM, Hepes pH 7.50, room temperature, 18h
T1 construct: His6 (hexahistidine, inserted after the initial methionine) (N); made in house; host or cells: E. coli BL21(DE3) plysE
T1 sequence (C7QJ42 1-358): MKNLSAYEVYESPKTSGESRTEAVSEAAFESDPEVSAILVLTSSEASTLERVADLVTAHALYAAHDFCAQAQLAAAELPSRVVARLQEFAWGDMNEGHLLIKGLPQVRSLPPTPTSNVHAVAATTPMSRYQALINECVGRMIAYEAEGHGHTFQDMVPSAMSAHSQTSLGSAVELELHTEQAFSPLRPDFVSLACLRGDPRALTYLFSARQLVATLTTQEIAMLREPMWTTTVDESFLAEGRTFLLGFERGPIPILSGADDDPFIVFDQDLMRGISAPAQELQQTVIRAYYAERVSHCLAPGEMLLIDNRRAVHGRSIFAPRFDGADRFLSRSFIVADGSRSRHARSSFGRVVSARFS
Procedure: as §1, §2
Enzymatic reaction was carried out in 250 mL glass erlenmeyer flask for a total volume of 4*10 mL. Water (4.8 mL), Hepes buffer 1M pH 7.50 (0.5 mL, 50 mM), L-lysine 50 mM (2 mL, 10 mM), α-ketoglutarate 150 mM (1 mL, 15 mM), sodium ascorbate 100 mM (0.25 mL, 2.5 mM), ammonium Iron(II) sulfate hexahydrate 10 mM (1 mL, 1 mM) were poured into the erlenmeyer flask. The reaction was started by the enzyme addition (0.53 mg/mL, 0.45 mL, final concentration 0.024 mg/mL). The reaction mixture was orbitally shaken (300 rpm) at room temperature for 18h. The conversion of L-lysine into 3-hydroxy-L-lysine (94%) was determined by HPLC after derivatization with Fmoc-Cl according to protocol A.

[3] = target: T2, ENZ3 SEQ ID NO:3 (Chitinophaga pinensis, UniProt C7PLM6); type: biochemical; settings: enzyme 0.08 mg/mL, molar ratio α-ketoglutarate/substrate 15/10, Hepes buffer 50 mM pH 7,5, Mohr's salt 1mM, without sodium ascorbate, room temperature, three hours
T2 construct: His6 (hexahistidine, inserted after the initial methionine) (N); made in house; host or cells: E. coli BL21(DE3) plysE
T2 sequence (C7PLM6 1-382): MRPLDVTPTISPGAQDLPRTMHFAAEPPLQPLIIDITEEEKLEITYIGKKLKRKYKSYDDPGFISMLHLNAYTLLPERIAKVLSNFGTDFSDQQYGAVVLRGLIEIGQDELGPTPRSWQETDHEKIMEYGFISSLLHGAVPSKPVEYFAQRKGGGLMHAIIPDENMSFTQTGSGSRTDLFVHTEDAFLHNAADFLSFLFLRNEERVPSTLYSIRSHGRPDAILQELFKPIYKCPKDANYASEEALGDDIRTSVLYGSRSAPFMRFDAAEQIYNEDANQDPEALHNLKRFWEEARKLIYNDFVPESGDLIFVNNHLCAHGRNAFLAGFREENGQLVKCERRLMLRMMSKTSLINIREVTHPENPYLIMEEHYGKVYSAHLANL
Procedure: as §1, §2
(§3) Enzymes (0.08 mg/mL) were screened against substrates (molar ratio α-ketoglutarate/substrate 15/10) in Hepes buffer 50 mM pH 7,5, with Mohr's salt at 1mM and without sodium ascorbate, at room temperature for three hours. The potential conversions of the substrates were determined by HPLC after Fmoc-Cl derivatization as section III here above.

[4] = target: T3, ENZ2 SEQ ID NO:2 (Flavobacterium johnsoniae, UniProt A5FF23); type: biochemical; settings: enzyme 0.08 mg/mL, molar ratio α-ketoglutarate/substrate 15/10, Hepes buffer 50 mM pH 7,5, Mohr's salt 1mM, without sodium ascorbate, room temperature, three hours
T3 construct: His6 (hexahistidine, inserted after the initial methionine) (N); made in house; host or cells: E. coli BL21(DE3) plysE
T3 sequence (A5FF23 1-370): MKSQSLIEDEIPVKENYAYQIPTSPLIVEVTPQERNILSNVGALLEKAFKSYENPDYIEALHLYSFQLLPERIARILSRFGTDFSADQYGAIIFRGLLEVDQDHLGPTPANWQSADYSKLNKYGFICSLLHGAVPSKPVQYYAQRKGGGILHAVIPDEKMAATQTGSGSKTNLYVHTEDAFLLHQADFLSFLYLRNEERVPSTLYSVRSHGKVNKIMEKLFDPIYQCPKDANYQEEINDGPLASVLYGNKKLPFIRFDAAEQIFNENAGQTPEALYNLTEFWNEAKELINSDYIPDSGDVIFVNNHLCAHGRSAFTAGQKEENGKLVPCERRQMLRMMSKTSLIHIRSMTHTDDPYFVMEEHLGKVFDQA
Procedure: as §1, §2, §3

[5] = target: T4, ENZ1 SEQ ID N°1 (Catenulispora acidiphila, UniProt C7QJ42); assay: Substrate selectivity screening of hydroxylase (conversion by HPLC after Fmoc-Cl derivatization); type: biochemical; settings: enzyme 0.08 mg/mL, molar ratio α-ketoglutarate/substrate 15/10, Hepes buffer 50 mM pH 7,5, Mohr's salt 1mM, without sodium ascorbate, room temperature, three hours
T4 construct: His6 (hexahistidine, inserted after the initial methionine) (N); made in house; host or cells: E. coli BL21(DE3) plysE
T4 sequence (C7QJ42 1-358): T1 sequence (C7QJ42 1-358)
Procedure, shortened: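 Enzymes at 0.08 mg/mL incubated with substrates (α-ketoglutarate/substrate 15/10) in 50 mM Hepes pH 7.5 with 1 mM Mohr's salt, no ascorbate, 3 h at room temperature. Conversion measured by reverse-phase HPLC after Fmoc-Cl derivatization in borate pH 7.7.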

SMILES: NCCCC[C@H](N)C(=O)O [L-lysine]
- conversion (L-lysine dihydroxylation to 3,4-di-hydroxy-L-lysine) [1]: 90%
- conversion of L-lysine into 3-hydroxy-L-lysine [2]: 94%
- potential conversions of the substrates, ENZ3 SEQ ID NO:3 [3]: positive
- potential conversions of the substrates, ENZ2 SEQ ID NO:2 [4]: positive
- potential conversions of the substrates, ENZ1 SEQ ID N°1 [5]: positive

Reference: patent EP2876156A1 (COMMISSARIAT A L'ENERGIE ATOMIQUE ET AUX ENERGIES …, priority 2013, dated 2015)
